This experiment relates to HL-60. In words: Cytotoxicity against human HL60 cells after 96 hrs by MTT assay. Format: functional, cell-based. Conditions: for IC50: HL-60, 96 h.

The structures appear in SMILES notation. Calls of active or inactive are those of the source. The rule behind the calls is not given here.

As to `C=C(C)[C@H](CC=C(C)C)Cc1c(O)cc(OC)c2c1O[C@H](c1ccc(O)cc1OC)CC2=O`, the concentration for half-maximal inhibition (IC50) stood at 13.7 µM. For the compound `COc1ccc(-c2coc3cc(O)ccc3c2=O)cc1`, the outcome was inactive. As for `Oc1ccc2c(c1)OC[C@H]1c3cc4c(cc3O[C@@H]21)OCO4`, the outcome was inactive. In turn, `C=C(C)[C@H](CC=C(C)C)Cc1c(O)cc(O)c2c1O[C@H](c1ccc(O)cc1O)CC2=O` [SOPHORAFLAVANONE G] displayed a half-maximal inhibitory concentration (IC50) of 12.5 µM. Still for that read-out and setting: with `C=C(C)C(CC=C(C)C)Cc1c(O)cc(OC)c2c1O[C@H](c1ccc(O)cc1O)CC2=O` (stereo not given in full) [KURARINONE] the figure was 18.5 µM.

By IC50 is commonly meant the concentration that gives 50% inhibition. Lower therefore signals higher potency.

The values above are taken from ChEMBL document CHEMBL1154583, “Cytotoxic lavandulyl flavanones from Sophora flavescens” (J Nat Prod, 2000).
